Laboratory results from ChEMBL document CHEMBL1201862, “PubChem BioAssay data set” (2004).
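Compound exposure: 48 hours, 5 concentrations, 96-well plates. GI50 is the concentration that inhibits growth by half.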 Active and inactive are the calls of the source. Cut-off read from the data, not from the text of the source: active = GI50 up to about 1.1 µM and inactive = higher.

How the values were obtained:
Experiment in all cases: growth of human tumour cells (NCI), 48 h
[1] = tested on: SF-268
[2] = tested on: UACC-62
[3] = tested on: SF-539
[4] = tested on: K562
[5] = tested on: TK-10
[6] = tested on: LOX IMVI
[7] = tested on: SK-MEL-5
[8] = tested on: SF-295
[9] = tested on: CAKI-1
[10] = tested on: UO-31
[11] = tested on: SNB-75
[12] = tested on: OVCAR-8
[13] = tested on: SW-620
[14] = tested on: HT-29
[15] = tested on: NCI-H522
[16] = tested on: ACHN
[17] = tested on: NCI-H23
[18] = tested on: SR

Row | Structure (SMILES) | GI50 [1] | GI50 [2] | GI50 [3] | GI50 [4] | GI50 [5] | GI50 [6] | GI50 [7] | GI50 [8] | GI50 [9] | GI50 [10] | GI50 [11] | GI50 [12] | GI50 [13] | GI50 [14] | GI50 [15] | GI50 [16] | GI50 [17] | GI50 [18]
1 | O=C(Nc1ccc(Cl)cc1)c1cc([N+](=O)[O-])ccc1O | 4.97 µM (inactive) | 2.29 µM (inactive) | 3.34 µM (inactive) | 2.67 µM (inactive) | 5.58 µM (inactive) | 3.29 µM (inactive) | 2.8 µM (inactive) | 4.95 µM (inactive) | 4.02 µM (inactive) | 2.6 µM (inactive) | 3.84 µM (inactive) | 4.33 µM (inactive) | 5.07 µM (inactive) | 3.62 µM (inactive) | 2.09 µM (inactive) | 3.2 µM (inactive) | 2.64 µM (inactive) | 5.57 µM (inactive)
2 | CC(C)(C)OC(=O)NC1CCC[C@H]1O (stereo partly specified) | > 100 µM (inactive) | > 100 µM (inactive) | > 100 µM (inactive) | > 100 µM (inactive) | > 100 µM (inactive) | > 100 µM (inactive) | > 100 µM (inactive) | > 100 µM (inactive) | > 100 µM (inactive) | > 100 µM (inactive) | 47.3 µM (inactive) | > 100 µM (inactive) | > 100 µM (inactive) | > 100 µM (inactive) | > 100 µM (inactive) | > 100 µM (inactive) | > 100 µM (inactive) | > 100 µM (inactive)
3 | N=C(N)N/N=C/c1oc(-c2ccc(S(=O)(=O)O)o2)c(-c2ccc(S(=O)(=O)O)o2)c1[N+](=O)[O-] | > 100 µM (inactive) | > 100 µM (inactive) | > 100 µM (inactive) | > 100 µM (inactive) | > 100 µM (inactive) | > 100 µM (inactive) | > 100 µM (inactive) | > 100 µM (inactive) | > 100 µM (inactive) | > 100 µM (inactive) | > 100 µM (inactive) | > 100 µM (inactive) | > 100 µM (inactive) | > 100 µM (inactive) | > 100 µM (inactive) | > 100 µM (inactive) | > 100 µM (inactive) | > 100 µM (inactive)
4 | C/C(=C\CBr)CCC(Br)C(C)(C)Cl (stereo unspecified) | > 100 µM (inactive) | > 100 µM (inactive) | > 100 µM (inactive) | > 100 µM (inactive) | > 100 µM (inactive) | > 100 µM (inactive) | > 100 µM (inactive) | > 100 µM (inactive) | > 100 µM (inactive) | > 100 µM (inactive) | > 100 µM (inactive) | > 100 µM (inactive) | > 100 µM (inactive) | > 100 µM (inactive) | > 100 µM (inactive) | > 100 µM (inactive) | > 100 µM (inactive) | > 100 µM (inactive)
5 | Cc1cc(N(CCC#N)CCC#N)ccc1/C=C(\N=[N+]=[N-])C(=O)NC(=O)COc1ccccc1 | > 100 µM (inactive) | > 100 µM (inactive) | > 67.1 µM (inactive) | > 100 µM (inactive) | > 100 µM (inactive) | > 100 µM (inactive) | > 100 µM (inactive) | > 61.7 µM (inactive) | > 100 µM (inactive) | > 100 µM (inactive) | > 44 µM (inactive) | > 81.1 µM (inactive) | > 100 µM (inactive) | > 100 µM (inactive) | > 100 µM (inactive) | > 100 µM (inactive) | > 100 µM (inactive) | > 100 µM (inactive)
6 | C=C1C(=O)OC2CCCCC3OC3C12 (stereo unspecified) | 13.8 µM (inactive) | 3.56 µM (inactive) | 11.7 µM (inactive) | 12.3 µM (inactive) | 13.8 µM (inactive) | 15.8 µM (inactive) | 3.99 µM (inactive) | 23.2 µM (inactive) | 3.36 µM (inactive) | 15.4 µM (inactive) | 20.4 µM (inactive) | 15.9 µM (inactive) | 4.06 µM (inactive) | 14.4 µM (inactive) | 1.87 µM (inactive) | 11 µM (inactive) | 14.4 µM (inactive) | 23 µM (inactive)
7 | COc1cccc(/C=N\NC(=O)C(C)SC(C)C(=O)N/N=C/c2cccc(OC)c2)c1 (stereo unspecified) | 33.4 µM (inactive) | > 54.2 µM (inactive) | > 89.1 µM (inactive) | > 78.3 µM (inactive) | 19.1 µM (inactive) | > 10 µM (inactive) | 56.1 µM (inactive) | 32.2 µM (inactive) | 34.3 µM (inactive) | 41 µM (inactive) | 16.9 µM (inactive) | 28.4 µM (inactive) | 57.8 µM (inactive) | > 66.8 µM (inactive) | 22.3 µM (inactive) | 18.9 µM (inactive) | 23.8 µM (inactive) | 40.5 µM (inactive)
8 | CCCCn1c(-c2ccccc2)cs/c1=N\NC(=O)Cn1c(C)nc2ccccc21 | – | 58.6 µM (inactive) | > 100 µM (inactive) | 14.5 µM (inactive) | > 100 µM (inactive) | 32.6 µM (inactive) | 20.4 µM (inactive) | 33.5 µM (inactive) | 62.5 µM (inactive) | 55.6 µM (inactive) | 60.1 µM (inactive) | > 100 µM (inactive) | > 100 µM (inactive) | > 100 µM (inactive) | 30.2 µM (inactive) | 75.9 µM (inactive) | 8.75 µM (inactive) | 11.5 µM (inactive)
9 | CCOC(=O)c1ccc(N[C@@H]2c3cc4c(cc3C(C3=CC(=O)C(=O)C(OC)=C3)[C@H]3C(=O)OCC32)OCO4)cc1 (stereo partly specified) | 1.77 µM (inactive) | 1.69 µM (inactive) | 1.29 µM (inactive) | 2.67 µM (inactive) | 9.84 µM (inactive) | 2.08 µM (inactive) | 2.72 µM (inactive) | 1.35 µM (inactive) | 0.634 µM (active) | 2.52 µM (inactive) | 1.58 µM (inactive) | 2.86 µM (inactive) | 2.34 µM (inactive) | 4.49 µM (inactive) | 4.61 µM (inactive) | 0.9 µM (active) | 1.54 µM (inactive) | 0.148 µM (active)
10 | C=C(C)C12CC3CC(/C(=N/O)C(C1)/C3=N\O)[C@@]2(C)O (stereo partly specified) | > 100 µM (inactive) | > 100 µM (inactive) | > 100 µM (inactive) | > 100 µM (inactive) | > 100 µM (inactive) | > 100 µM (inactive) | > 100 µM (inactive) | > 100 µM (inactive) | > 100 µM (inactive) | > 100 µM (inactive) | 93.8 µM (inactive) | > 100 µM (inactive) | > 100 µM (inactive) | > 100 µM (inactive) | > 100 µM (inactive) | > 100 µM (inactive) | > 100 µM (inactive) | > 100 µM (inactive)
11 | CNC(=O)OCc1cc2ccncc2c2c1[nH]c1ccccc12 | – | > 100 µM (inactive) | > 42.6 µM (inactive) | 17.9 µM (inactive) | > 100 µM (inactive) | > 22.1 µM (inactive) | > 100 µM (inactive) | > 100 µM (inactive) | 3.21 µM (inactive) | > 100 µM (inactive) | > 40.4 µM (inactive) | 11.5 µM (inactive) | 6.01 µM (inactive) | > 25.5 µM (inactive) | 20.7 µM (inactive) | 5.47 µM (inactive) | > 100 µM (inactive) | 2.12 µM (inactive)
